Laboratory results from PubChem BioAssay AID266 (DTP/NCI, 2004).
Records with an inconclusive call do not appear.

Test system: Nude mice, LX-1 lung xenograft intrarenal, tumor weight T/C
Test: NCI In Vivo Anticancer Drug Screen. Data for tumor model Human Lung LX-1 Xenograft (intrarenal inoculation) in NU/NU BALB/C (nude) mice
Conditions: endpoint: mean tumor weight change, higher = larger tumour
Procedure: The antitumor activity of compounds was measured in mice bearing transplantable tumors. Survival or tumor size were measured and the results are expressed as the measurement made in the treated group (T) divided by the measurement made in the vehicle treated control group (C). The tumor model used in this assay is Human Lung LX-1 Xenograft (intrarenal inoculation) in NU/NU BALB/C (nude) mice

[1] = dose: 300.0 mg/kg/injection, schedule: Q04DX003 (sc), vehicle: saline with Tween-80
[2] = dose: 600.0 mg/kg/injection, schedule: Q04DX003 (sc), vehicle: saline with Tween-80
[3] = dose: 1200.0 mg/kg/injection, schedule: Q04DX003 (sc), vehicle: saline with Tween-80
[4] = dose: 2400.0 mg/kg/injection, schedule: Q04DX003 (sc), vehicle: saline with Tween-80
[5] = dose: 50.0 mg/kg/injection, schedule: Q01DX010 (sc), vehicle: saline
[6] = dose: 100.0 mg/kg/injection, schedule: Q01DX010 (sc), vehicle: saline with Tween-80
[7] = dose: 200.0 mg/kg/injection, schedule: Q01DX010 (sc), vehicle: saline with Tween-80
[8] = dose: 150.0 mg/kg/injection, schedule: Q04DX003 (sc), vehicle: saline
[9] = dose: 300.0 mg/kg/injection, schedule: Q04DX003 (sc), vehicle: saline
[10] = dose: 75.0 mg/kg/injection, schedule: Q04DX003 (sc), vehicle: saline with Tween-80
[11] = dose: 150.0 mg/kg/injection, schedule: Q04DX003 (sc), vehicle: saline with Tween-80

Which results are given for `COc1cc(C(C)(C)C)cc(OC)c1C(O)(c1c(OC)cc(C(C)(C)C)cc1OC)c1c(OC)cc(C(C)(C)C)cc1OC`?
T/C [1]: 60 % of control; T/C [2]: 54 % of control; T/C [3]: 54 % of control; T/C [4]: 73 % of control

Which results are given for `CN(N=O)C(N)=O`?
T/C (dose: 12.5 mg/kg/injection, schedule: Q01DX010 (sc), vehicle: saline with Tween-80): -68 % of control; T/C (dose: 25.0 mg/kg/injection, schedule: Q01DX010 (sc), vehicle: saline with Tween-80): -54 % of control; T/C (dose: 50.0 mg/kg/injection, schedule: Q01DX010 (sc), vehicle: saline with Tween-80): -69 % of control

For `Cc1c(CNc2ccc(C(=O)NC(CC(=O)O)C(=O)O)cc2)ccc2nc(N)nc(N)c12` (stereo not drawn), which T/C (dose: 12.5 mg/kg/injection, schedule: Q04DX003 (sc), vehicle: saline with Tween-80) is on record?
The T/C was 100 % of control.

What about the T/C (dose: 25.0 mg/kg/injection, schedule: Q04DX003 (sc), vehicle: saline with Tween-80) of the same molecule?
The T/C was 71 % of control.

What about the T/C (dose: 50.0 mg/kg/injection, schedule: Q04DX003 (sc), vehicle: saline with Tween-80) of the same molecule?
Its T/C is 32 % of control.

For `CCOC(=O)C(N)CSC(=O)NC` (stereo not drawn), which T/C (dose: 150.0 mg/kg/injection, schedule: Q04DX003 (ip), vehicle: saline) is on record?
Its T/C is 82 % of control.

And the T/C (dose: 300.0 mg/kg/injection, schedule: Q04DX003 (ip), vehicle: saline)?
The T/C was 52 % of control.

What about the T/C (dose: 600.0 mg/kg/injection, schedule: Q04DX003 (ip), vehicle: saline) of the same molecule?
The T/C was 102 % of control.

How did the T/C (dose: 50.0 mg/kg/injection, schedule: Q01DX010 (sc), vehicle: water) turn out when `Cn1cnc([N+](=O)[O-])c1[Se]c1nc(N)nc2nc[nH]c12` was run?
The T/C was 64 % of control.

What about the T/C (dose: 100.0 mg/kg/injection, schedule: Q01DX010 (sc), vehicle: water) of the same molecule?
The T/C was 69 % of control.

With `COc1ccc(C(=O)/C(Br)=C/C(=O)O)cc1` as the molecule, how does the T/C (dose: 25.0 mg/kg/injection, schedule: Q01DX010 (sc), vehicle: saline) read?
The T/C was 194 % of control.

And the T/C [5]?
Its T/C is 158 % of control.

`Cn1c(=O)[nH]c2nncnc2c1=O` was tested. Which T/C (dose: 62.5 mg/kg/injection, schedule: Q04DX003 (sc), vehicle: water) did it give?
Its T/C is 110 % of control.

With `CC(=O)OCC1(C)NC(=O)c2ccccc2O1` (stereo not drawn) as the molecule, how does the T/C [1] read?
Its T/C is 86 % of control.

And the T/C [3]?
The T/C was 91 % of control.

Which results are given for `C1CC[N-]CC1.[Cl][Pt+2][Cl].[NH-]C1CC1`?
T/C (dose: 25.0 mg/kg/injection, schedule: Q04DX003 (sc), vehicle: water): 106 % of control; T/C (dose: 50.0 mg/kg/injection, schedule: Q04DX003 (sc), vehicle: water): 71 % of control; T/C (dose: 100.0 mg/kg/injection, schedule: Q04DX003 (sc), vehicle: water): 51 % of control

`COc1ccc2cc1Oc1ccc(cc1)C[C@H]1c3cc(c(OC)cc3CCN1C)Oc1c(OC)c(OC)cc3c1[C@H](C2)N(C)CC3` was tested. Which T/C [6] did it give?
Its T/C is 110 % of control.

And the T/C [7]?
The T/C was 122 % of control.

Which results are given for `N#CCCSC(=S)C1CCCC1=N` (stereo not drawn)?
T/C [1]: 84 % of control; T/C [2]: 79 % of control; T/C [3]: 102 % of control; T/C [4]: 91 % of control

How did the T/C (dose: 6.25 mg/kg/injection, schedule: Q01DX010 (sc), vehicle: water) turn out when `COc1cccc2c1C(=O)c1c(O)c3c(c(O)c1C2=O)CC(O)(/C(C)=N/NC(=O)CCC(=O)N/N=C(\C)C1(O)Cc2c(O)c4c(c(O)c2C(OC2CC(N)C(O)C(C)O2)C1)C(=O)c1c(OC)cccc1C4=O)CC3OC1CC(N)C(O)C(C)O1` (stereo not drawn) was run?
Its T/C is 65 % of control.

What about the T/C (dose: 12.5 mg/kg/injection, schedule: Q01DX010 (sc), vehicle: water) of the same molecule?
Its T/C is 23 % of control.

What does the source list for `CCN(CC)CCOCCO`?
T/C [8]: 109 % of control; T/C [9]: 105 % of control; T/C (dose: 600.0 mg/kg/injection, schedule: Q04DX003 (sc), vehicle: saline): 86 % of control; T/C (dose: 1200.0 mg/kg/injection, schedule: Q04DX003 (sc), vehicle: saline): 77 % of control

For `COc1ccc(N=N/N=c2\sc3cc(OC)ccc3n2C)cc1`, which T/C (dose: 30.0 mg/kg/injection, schedule: Q04DX003 (ip), vehicle: saline with Tween-80) is on record?
Its T/C is 117 % of control.

And the T/C (dose: 60.0 mg/kg/injection, schedule: Q04DX003 (ip), vehicle: saline with Tween-80)?
Its T/C is 94 % of control.

And the T/C (dose: 75.0 mg/kg/injection, schedule: Q04DX003 (ip), vehicle: saline with Tween-80)?
Its T/C is 99 % of control.

And the T/C (dose: 120.0 mg/kg/injection, schedule: Q04DX003 (ip), vehicle: saline with Tween-80)?
Its T/C is 55 % of control.

And the T/C (dose: 150.0 mg/kg/injection, schedule: Q04DX003 (ip), vehicle: saline with Tween-80)?
The T/C was 80 % of control.

And the T/C (dose: 240.0 mg/kg/injection, schedule: Q04DX003 (ip), vehicle: saline with Tween-80)?
Its T/C is 67 % of control.

What about the T/C (dose: 300.0 mg/kg/injection, schedule: Q04DX003 (ip), vehicle: saline with Tween-80) of the same molecule?
The T/C was 50 % of control.

With `O=S(=O)(N=N/C=C1\C=CC=CN1O)c1cccs1` as the molecule, how does the T/C (dose: 37.5 mg/kg/injection, schedule: Q04DX003 (sc), vehicle: saline with Tween-80) read?
Its T/C is 121 % of control.

What about the T/C [10] of the same molecule?
The T/C was 82 % of control.

What about the T/C [11] of the same molecule?
The T/C was 103 % of control.

Which results are given for `Cc1ccc(S(=O)(=O)NC(=S)S)cc1`?
T/C [6]: 203 % of control; T/C [7]: 111 % of control; T/C (dose: 400.0 mg/kg/injection, schedule: Q01DX010 (sc), vehicle: saline with Tween-80): 196 % of control

`Nc1nc(=S)c2[nH]cnc2[nH]1` was tested. Which T/C (dose: 0.4 mg/kg/injection, schedule: Q01DX010 (sc), vehicle: Klucel (hydroxypropylcellulose) (HPC)) did it give?
Its T/C is 105 % of control.

What about the T/C (dose: 1.6 mg/kg/injection, schedule: Q01DX010 (sc), vehicle: Klucel (hydroxypropylcellulose) (HPC)) of the same molecule?
Its T/C is 76 % of control.

What about the T/C (dose: 3.2 mg/kg/injection, schedule: Q01DX010 (sc), vehicle: Klucel (hydroxypropylcellulose) (HPC)) of the same molecule?
Its T/C is 58 % of control.

Which results are given for `FC(F)(F)c1nc2nc(Cl)c(Cl)nc2[nH]1`?
T/C [10]: 116 % of control; T/C [11]: 74 % of control; T/C [1]: 68 % of control

How did the T/C [1] turn out when `CC1(C)CC2(C)OC2C2(C1)N=NC(=Nc1ccccc1)O2` (stereo not drawn) was run?
The T/C was 104 % of control.

And the T/C [2]?
The T/C was 61 % of control.

What about the T/C [3] of the same molecule?
Its T/C is 91 % of control.

With `CN(CCN(C)C(=O)CCOS(C)(=O)=O)C(=O)CCOS(C)(=O)=O` as the molecule, how does the T/C (dose: 37.5 mg/kg/injection, schedule: Q04DX003 (sc), vehicle: saline) read?
Its T/C is 90 % of control.

What about the T/C (dose: 75.0 mg/kg/injection, schedule: Q04DX003 (sc), vehicle: saline) of the same molecule?
The T/C was 91 % of control.

And the T/C [8]?
The T/C was 86 % of control.

And the T/C [9]?
The T/C was 36 % of control.

Which T/C (dose: 100.0 mg/kg/injection, schedule: Q04DX003 (ip), vehicle: saline with Tween-80) does the source give for `O=C(CN1CCOCC1)Nc1nc(-c2ccc(Cl)cc2)cs1` here?
The T/C was 118 % of control.

What about the T/C (dose: 200.0 mg/kg/injection, schedule: Q04DX003 (ip), vehicle: saline with Tween-80) of the same molecule?
The T/C was 87 % of control.

And the T/C (dose: 400.0 mg/kg/injection, schedule: Q04DX003 (ip), vehicle: saline with Tween-80)?
Its T/C is 106 % of control.

And the T/C (dose: 800.0 mg/kg/injection, schedule: Q04DX003 (ip), vehicle: saline with Tween-80)?
Its T/C is 89 % of control.

What does the source list for `C/C(=N\NC(=S)N1CCN(c2ccccn2)CC1)c1ccccn1`?
T/C (dose: 37.5 mg/kg/injection, schedule: Q04DX003 (sc), vehicle: water): 106 % of control; T/C (dose: 75.0 mg/kg/injection, schedule: Q04DX003 (sc), vehicle: water): 102 % of control

How did the T/C [1] turn out when `c1cc(OCC2CO2)ccc1OCC1CO1` (stereo not drawn) was run?
The T/C was 172 % of control.

What about the T/C [2] of the same molecule?
Its T/C is 118 % of control.

And the T/C [3]?
The T/C was 114 % of control.

What about the T/C [4] of the same molecule?
Its T/C is 88 % of control.

`O=CC(S)CO` (stereo not drawn) was tested. Which T/C (dose: 100.0 mg/kg/injection, schedule: Q04DX003 (sc), vehicle: suspension in saline) did it give?
Its T/C is 94 % of control.

And the T/C (dose: 200.0 mg/kg/injection, schedule: Q04DX003 (sc), vehicle: suspension in saline)?
Its T/C is 94 % of control.

What about the T/C (dose: 400.0 mg/kg/injection, schedule: Q04DX003 (sc), vehicle: suspension in saline) of the same molecule?
Its T/C is 84 % of control.

For `O=[N+]([O-])O.O=[N+]([O-])O.[NH-]C1CCCCC1[NH-].[Pt+2]` (stereo not drawn), which T/C (dose: 0.5 mg/kg/injection, schedule: Q01DX010 (sc), vehicle: dextrose) is on record?
Its T/C is 76 % of control.

What about the T/C (dose: 1.0 mg/kg/injection, schedule: Q01DX010 (sc), vehicle: dextrose) of the same molecule?
The T/C was 80 % of control.

For `C1CN2CN3CCN(CN1C3)C2`, which T/C [5] is on record?
The T/C was 68 % of control.

What about the T/C (dose: 200.0 mg/kg/injection, schedule: Q01DX010 (sc), vehicle: saline) of the same molecule?
The T/C was 48 % of control.

What about the T/C (dose: 400.0 mg/kg/injection, schedule: Q01DX010 (sc), vehicle: saline) of the same molecule?
The T/C was 23 % of control.

`CC1=C2CC(C)(C)/C=C\C(=O)/C(C)=C\C3=C[C@H](C)C[C@]3(O2)C1=O` was tested. Which T/C (dose: 6.0 mg/kg/injection, schedule: Q01DX010 (sc), vehicle: Klucel (hydroxypropylcellulose) (HPC)) did it give?
Its T/C is 81 % of control.

And the T/C (dose: 12.0 mg/kg/injection, schedule: Q01DX010 (sc), vehicle: Klucel (hydroxypropylcellulose) (HPC))?
The T/C was 168 % of control.

What about the T/C (dose: 24.0 mg/kg/injection, schedule: Q01DX010 (sc), vehicle: Klucel (hydroxypropylcellulose) (HPC)) of the same molecule?
The T/C was 236 % of control.

And the T/C (dose: 50.0 mg/kg/injection, schedule: Q01DX010 (sc), vehicle: Klucel (hydroxypropylcellulose) (HPC))?
The T/C was 33 % of control.
